Data on one substance can be found in patent publication US20150141340A1, “METHOD OF TREATING AND PREVENTING OCULAR ANGIOGENESIS” (Yale University, priority 2012, published 2015).

Test [1] concerns choroidal neovascularization (CNV). The experiment in a line: Laser-induced choroidal neovascularization (CNV) model, isolectin b4 labeling. It counts as in vivo, mice. An excerpt: Experiments were designed to examine whether treatment with cavtratin is useful in disease models of excessive ocular angiogenesis. To induce choroidal neovascularization (CNV), a model for retinal angiogenesis in mice, three 532 nm diode laser spots were applied to each fundus of the eye using a coverslip as a contact lens. The lesions were placed between the retinal vessels 2-3 disc diameters from the optic nerve. Formation of a bubble indicates rupture of the Bruch's membrane, a critical factor in driving CNV. Cavtratin was dissolved into acetic acid and diluted into saline. […] After treatment and injury, CNV was visualized by immunofluorescent labeling with isolectin b4, a marker for angiogenic blood vessels. CNV area was quantified as isolectin positive vessels per area measured.
Since mechanistically cavtratin reduces vascular permeability, vascular leakage was examined after CNV damage.
Further, it was examined whether the effects of cavtratin treatment synergizes with anti-VEGF. Mice were injected with either cavtratin (0.05 nmol) one day prior to laser damage, anti-VEGF (5 μg) 2 days after damage, or were treated with both cavtratin and anti-VEGF.

The subject of test [2] is ischemia triggered neovascularization. The experiment in a line: Retinopathy of prematurity model (ROP). Particulars: administration 2 days after switching from hyperoxia to room air; vs AP injected eyes. It counts as in vivo, mouse. The protocol:
Next, cavtratin was tested in an additional model of ocular angiogenesis, retinopathy of prematurity model (ROP). Exposure to hyperoxia during early retinal development leads to the arrest or retardation of normal retinal vascular development. When the animals are returned to the normoxic environment, they are under a relative hypoxic situation where the retina now lacks its normal vasculature that is required to adequately support the neural tissue in normoxic conditions. This ischemic situation results in unregulated, abnormal neovascularization. The neovascular response is very consistent, reproducible and quantifiable, and it has become integral model for studying disease mechanisms and potential treatments for ischemic retinopathy. The mouse ROP model has become the most common model for studying pathologic angiogenesis and has been extended to the general study of ischemic retinopathies and related anti-angiogenic treatments. […] Cavtratin induced attenuation of ischemia triggered neovascularization is shown in FIG. 8, where the left panels are representative of two AP injected eyes and right panels are from cavtratin injections.

With “cavtratin: fusion peptide comprising an antennapedia homeodomain internalization sequence fused to a caveolin-1 scaffolding domain; SEQ ID NO: 13 (RQIKIWFQNRRMKWKKDGIWKASFTTFTVTKYWFYR; Antennapedia-caveolin-1 scaffolding domain fusion peptide)”, in test [1] (0.5 nmol intraocular (1 microliter) prior to laser damage and again 2 days after, sacrificed after 4 additional days, vs AP control, N=17-18 eyes, P<0.05), the “CNV area (isolectin positive vessels per area measured)” value is reported as “reduced CNV”. Further, in test [1] (anti-VEGF administration as comparator (FIG. 3, FIG. 4), reduced to a level comparable to anti-VEGF), the “CNV, dose dependence” value is “dose-dependently reduces CNV”. For the same substance, in test [2], the ischemia triggered neovascularization entry is “attenuation of extensive, ischemia triggered neovascualization”.
